According to patent US9421163B2, “Topical compositions comprising polyunsaturated fatty acids” (Dignity Sciences Limited, priority 2009, dated 2016):

Legend:
COX-2 enzymes = assay: Immunohistochemistry assay of COX-2 enzymes in ex vivo porcine ear skin (Franz diffusion cell, diaminobenzidine staining); type: cell-based; conditions: substance as donor phase in Franz cell, after six hours versus 0 hours
COX-2 = assay: Western Blotting of COX-2 expression in porcine skin after topical application; type: cell-based; conditions: topically applied, water control assigned 100%, FIG. 5
Experimental: A Western Blotting experiment was carried out to determine the effect of topically applied representative compounds of the invention DGLA and 15-HETrE on the expression of COX-2 in porcine skin. Water was used as a control.
The porcine skin membranes (as described in Example 1) were gently cleaned with de-ionised water before being homogenized (Silverson, Chesham, UK) in a RIPA lysis buffer [50 mM Tris-HCl (PH 7.4), 150 mM NaCl, 1 mM PMSF, 1 mM EDTA, 5 μg mL^−1 aprotinin, 5 μg mL^−1 leupeptin, 1% Triton X-100, 1% sodium deoxycholate, 0.1% SDS]. After 15 min incubation on ice, the lysates were clarified by centrifugation at 14000×g for 2×15 min and the supernatant stored at −80° C. for subsequent protein analysis.
Aliquots of 30 μg total protein were separated by SDS-PAGE, transferred to nitrocelullose membranes using the Trans-Blot electrophoretic Transfer Cell and briefly stained with Ponceau S to verify effective transfer. Immunoblots were incubated for 1 h in a blocking solution [tris-buffered saline (TBS)-Tween 20 containing 5% (w/v) commercial skimmed milk powder (Marvel) at room temperature. After washing, the membrane was probed overnight at 4° C. with COX-2 antibody at 1:1000, 5-LOX at 1:1000 and iNOS at 1:500 in (1:20 and 1:100 western blocking reagent and sodium azide solution respectively made up to volume with TBS tween). […]

skin = conditions: applied directly to the skin; Xi et al. 2000; cited from earlier work

Compound	amount of dark stain (diaminobenzidine, COX-2 enzymes present in the skin) (COX-2 enzymes)	COX-2 expression relative to the control (COX-2)	antiproliferative properties (skin)
CC(C(=O)O)c1cccc(C(=O)c2ccccc2)c1 (stereo not drawn) [ketoprofen, reference compound]	the amount of dark stain has reduced	–	–
CCCCC/C=C\C/C=C\C/C=C\CCCCCCC(=O)O [DGLA, Eicosa-8Z, 11Z, 14Z-trienoic acid]	the amount of dark stain has reduced	significant reduction	–
CCCCCC(O)/C=C/C=C\C/C=C\CCCCCCC(=O)O (stereo not drawn) [15-HETrE, 15-Hydroxy-eicosa-8Z, 11Z, 13E-trienoic acid]	the amount of dark stain has reduced	significant reduction	antiproliferative properties
